Reference: patent US11833256B2, “Selective RARγ ligand-loaded nanoparticles for manipulation of targeted bone growth” (University Of Maryland, Baltimore, priority 2017, dated 2023)

Legend:
[1] = Hydrophobicity of acetaminophen-capped prodrug derivative versus parent; format: physicochemical; settings: acetaminophen-capped derivative vs parent retinoid
Text: In order to produce an in situ activatable, reversibly hydrophobized prodrug derivatives of a RARγ agonist, a pro-drug can be delivered in a nanoparticle formulation. […] However, the ionizable carboxylic group promotes the partitioning of the compound from the particle to the surrounding aqueous medium. […] The compound would be activatable upon release can increase the stability of the particle-cargo association and help achieve a more lasting and highly localized therapeutic effect. Such constructs are in essence mutual prodrugs or co-drugs, as they regenerate in one step the retinoid compound and acetaminophen, a biologically active “helper” agent, which can play an important supporting role in therapy.

[2] = system: BMP signaling (phosphorylated Smad1/5, p38, Erk1/2); experiment: Immunoblotting of phosphorylated Smad1/5, p38 and Erk1/2 in ATDC5 cells / primary chondrocytes; format: cell-based, mouse; settings: in the presence of 10 ng/mL rhBMP-2; each dose tested
Protocol: ATDC5 cells were grown until approximately 70% confluence in Dulbecco's modified Eagle's medium/Ham's nutrient mixture F-12 containing 5% fetal bovine serum (FBS). After serum deprivation (0.3% FBS) for 16 hours, cultures were treated with rhBMP-2 and/or retinoids for 60 minutes and then lysed in SDS-PAGE sample buffer. Cell lysates were denatured, separated onto 10% SDS-page gels and transferred to PVDF membranes (Millipore™, USA). Membranes were incubated overnight at 4° C. with antibodies against phospho-Smad1/5 (Cell Signaling Technology™, 9516, 1:1000), phospho-Smad1/5/8 (Cell Signaling Technology™, 9511, 1:1000), phospho-Erk1/2 (Cell Signaling Technology™, 4370, 1:500), or phospho-p38 (Cell Signaling Technology™, 4511, 1:500), followed by incubation with horseradish peroxidase (HRP)-conjugated secondary antibody (Cell Signaling Technology™, 7074, 1:2000). HRP activity was detected using a SuperSignal™ West Dura Extended Duration Substrate (Thermo Scientific™, USA). Membranes were re-blotted with antibodies against GAPDH (Santa Cruz Biotechnology™, sc-32233, 1:1000) for loading normalization.
RARγ was examined for whether it has cell-autonomous roles on BMP signaling in chondrocytes. […] Levels of phosphorylated Smad1/5, p38 and Erk1/2 were analyzed by immunoblotting. […]

[3] = system: canonical BMP signaling reporter Id1-Luc; experiment: Id1-luc reporter assay in primary chondrocytes; format: cell-based, mouse
Protocol: Primary mouse epiphyseal chondrocytes were isolated from neonatal C57BL/6J mice according to known methods (Yasuhara et al., Lab. Invest. 91(12):1739-1752, 2011) and were plated on 48- or 96-well plates and serum-starved overnight. Cultures were co-transfected with canonical BMP signaling reporter Id1-Luc or retinoic acid response element (RARE)-Luc plasmids and phRG-TK (Promega™) using Lipofectamine LTX™ and Plus™ reagent (Invitrogen™) according to the manufacturer's protocol. Twenty four hours later, cells were treated with rhBMP-2 and/or retinoid and incubated for an additional 24 hours. Cells then were harvested and subjected to dual luciferase assay (Promega™). Firefly luciferase activity was normalized to renilla luciferase activity generated by phRG-TK.
Enhancement of BMP-Smad signaling by RARγ antagonists was confirmed by Id1-luc reporter assays. Cells were treated with the indicated doses of CD2665 or MM11253 in the absence or presence of 10 ng/mL rhBMP-2.

[4] = system: pSmad1/5/8-positive cells (canonical BMP signaling); experiment: pSmad1/5/8 immunohistochemistry of ectopic BMP-Matrigel masses; format: in vivo, mouse; settings: 4 mg/kg on day 1 and 3; samples day 5
Protocol: Tissue samples were fixed in 4% paraformaldehyde overnight at 4° C., decalcified in 10% EDTA (for calcified samples only), processed for paraffin embedding, and serially sectioned at 6 μm-thickness. Sections were stained with hematoxylin and eosin (HE) for general profiling or with Alcian blue at pH 1.0 and eosin counter-staining. For immunohistochemical analysis, antigen retrieval was performed with 0.1% pepsin in 0.02 N—HCl for 10 minutes, and sections were incubated with blocking solution (0.1 M NaPB, 1% BSA and 10% normal goat serum) for 1 hour and then with primary antibodies against phospho-Smad1/5/8 (Cell Signaling Technology™, 9511, 1:100) overnight at 4° C. The antibodies were visualized using rabbit specific HRP/DAB (ABC™) detection kit (Abcam™, ab64261). After detection, sections were counter-stained with 0.5% methyl green.
There are reciprocal antagonistic relationships between the retinoid and BMP signaling pathways in several biological systems. In addition, the suppression of chondrogenesis and heterotopic ossification by RARγ agonists involved inhibition of canonical BMP signaling. Thus, it became important to determine if and how BMP signaling was affected in the various experimental approaches here. […]
First, the distribution of phosphorylated Smad1/5/8-positive cells was determined within regenerating tibial bone defect areas in wild type and RARγ-null mice (FIG. 6A). […]

[5] = system: ectopic bone formation in RARγ-null mice; experiment: Ectopic bone formation model in RARγ-null mice; format: in vivo, mouse; settings: N=8
Protocol: To verify specificity of this drug action, similar ectopic bone formation experiments were carried out with RARγ-null mice treated with vehicle or one of the antagonists (CD2665) (FIG. 13E).

| more hydrophobic derivative if modified with acetaminophen [1] [fold] | SMILES | pSmad1/5/8 levels (immunoblot) [2] | Id1-luc reporter activity ([3]; absence of exogenous rhBMP-2) | Id1-luc reporter activity ([3]; presence of 10 ng/mL rhBMP-2) | pSmad1/5/8-positive cells in ectopic BMP-Matrigel masses [4] | ectopic bone formation in RARγ-null mice, drug vs vehicle [5] |
| --- | --- | --- | --- | --- | --- | --- |
| 5 | CC1(C)CCC(C)(C)c2cc(C3(c4ccc5cc(C(=O)O)ccc5c4)SCCS3)ccc21 [MM11253] | significantly enhanced | slightly increased | significantly enhanced |  |  |
|  | COCCOCOc1cc2ccc(-c3ccc(C(=O)O)cc3)cc2cc1C12CC3CC(CC(C3)C1)C2 [CD2665] | significantly enhanced | slightly increased | significantly enhanced | more numerous and obvious | No significant differences in bone formation |
